From ChEMBL document CHEMBL1201862, “PubChem BioAssay data set” (2004)
The source made the active and inactive calls.

Legend:
[1] = growth suppression of beta-catenin-knockout colon cells, dose response, cell-based, HCT116, human colon tumor (AID 1045); type: functional;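 also: HCT116 colon tumor cells with beta catenin knocked out; cells exposed to compound for 60 hours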
[2] = molecular target: T1, Heat shock factor protein 1 (Mus musculus, UniProt P38532); test: HSF1 potentiators in luciferase reporter cells, confirmation, cell-based, NIH3T3, luminescence, dose retest (AID 435004); type: functional;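 also: stress induced by proteasome inhibitor MG132 added 30 min after compound; luciferase reporter driven by HSF1 response element in NIH3T3 cells; actives raise luminescence as potentiators of the MG132 stress response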
T1 sequence (P38532 whole entry): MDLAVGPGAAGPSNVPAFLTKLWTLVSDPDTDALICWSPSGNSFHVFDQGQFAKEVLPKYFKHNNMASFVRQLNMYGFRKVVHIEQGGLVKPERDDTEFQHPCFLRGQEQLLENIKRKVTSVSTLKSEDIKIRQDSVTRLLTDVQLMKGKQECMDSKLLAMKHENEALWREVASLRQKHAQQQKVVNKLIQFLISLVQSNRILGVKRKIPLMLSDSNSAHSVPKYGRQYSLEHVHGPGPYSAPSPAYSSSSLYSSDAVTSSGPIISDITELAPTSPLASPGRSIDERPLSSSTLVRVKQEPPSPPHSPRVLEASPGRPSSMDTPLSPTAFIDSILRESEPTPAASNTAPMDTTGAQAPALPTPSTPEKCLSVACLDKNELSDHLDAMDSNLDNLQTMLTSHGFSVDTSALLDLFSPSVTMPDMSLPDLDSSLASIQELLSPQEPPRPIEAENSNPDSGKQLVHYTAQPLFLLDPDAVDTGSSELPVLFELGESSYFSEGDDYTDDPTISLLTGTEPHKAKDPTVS

[3] = growth suppression of PTEN-null colon cells, dose response, cell-based, HCT116 PTEN knockout (AID 1047); type: functional;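 also: HCT116 colon tumor cells with PTEN knocked out; cells exposed to compound for 60 hours before readout; potency for loss of cell viability measured by luminescence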
[4] = Luminescence Cell-Based Dose Retest to Confirm Inhibitors of Cancer Stem Cells. [Related pubchem assays (depositor defined):AID2717, AID2721]; type: functional, Homo sapiens; details: Homo sapiens
[5] = molecular target: Heat shock protein HSP 90-alpha (Homo sapiens, UniProt P07900); type: functional, organism-based
[6] = cytotoxicity toward NIH3T3 fibroblasts, dose response, counter-screen, cell-based, ATP luminescence, mouse fibroblasts (AID 2010); type: functional;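 also: cells exposed to compound for about 90 hours before reading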
[7] = inhibitors of intracellular T. cruzi replication, confirmation, NIH3T3 host cells, beta-gal luminescence (AID 2044); type: functional, cell-based;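 also: intracellular parasites grown in NIH/3T3 mouse fibroblasts as host cells; luminescent beta-galactosidase reporter signal from transgenic T. cruzi replicating inside host cells; inhibitors lower the luminescence signal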
[8] = system: Vero; test: Vero cell cytotoxicity, cytotoxicity control for flavivirus capping enzyme inhibitors (AID 588742); type: functional; details: Chlorocebus sabaeus
[9] = system: INS1; test: beta cell apoptosis inhibitors, cytokine rescue, dose response, luminescence, retest (AID 449756); type: functional, cell-based; details: Rattus norvegicus;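 also: cell death triggered by IL-1 beta plus TNF-alpha plus IFN-gamma mixture; protective hits raise ATP signal compared with cytokine alone wells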
[10] = cytotoxicity in HEK-293T cells, dose response, cytotoxicity control for TCR NF-kB inhibitor project, luminescence, T-cell screen hits (AID 489026); type: functional, cell-based;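 also: cells exposed to compound about 14 hours before the viability readout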
[11] = molecular target: Nonstructural protein 1 (Influenza A virus, UniProt Q194T2); type: functional, Influenza A virus (A/California/07/2009(H1N1))
Sequence of Nonstructural protein 1 (Q194T2 whole entry): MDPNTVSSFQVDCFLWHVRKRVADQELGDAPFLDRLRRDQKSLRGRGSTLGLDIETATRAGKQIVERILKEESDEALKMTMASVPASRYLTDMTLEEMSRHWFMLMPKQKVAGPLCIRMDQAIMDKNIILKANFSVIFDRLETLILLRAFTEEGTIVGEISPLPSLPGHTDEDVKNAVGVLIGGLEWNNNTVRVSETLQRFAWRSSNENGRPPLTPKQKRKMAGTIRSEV

[12] = molecular target: T2, Microphthalmia-associated transcription factor (Homo sapiens, UniProt O75030); test: TRPM1 promoter luciferase signal decrease, dose response, MITF inhibitor project, cell-based, SK-MEL-5, cherry-picked, set 3 (AID 493073); type: functional
T2 sequence (O75030 whole entry): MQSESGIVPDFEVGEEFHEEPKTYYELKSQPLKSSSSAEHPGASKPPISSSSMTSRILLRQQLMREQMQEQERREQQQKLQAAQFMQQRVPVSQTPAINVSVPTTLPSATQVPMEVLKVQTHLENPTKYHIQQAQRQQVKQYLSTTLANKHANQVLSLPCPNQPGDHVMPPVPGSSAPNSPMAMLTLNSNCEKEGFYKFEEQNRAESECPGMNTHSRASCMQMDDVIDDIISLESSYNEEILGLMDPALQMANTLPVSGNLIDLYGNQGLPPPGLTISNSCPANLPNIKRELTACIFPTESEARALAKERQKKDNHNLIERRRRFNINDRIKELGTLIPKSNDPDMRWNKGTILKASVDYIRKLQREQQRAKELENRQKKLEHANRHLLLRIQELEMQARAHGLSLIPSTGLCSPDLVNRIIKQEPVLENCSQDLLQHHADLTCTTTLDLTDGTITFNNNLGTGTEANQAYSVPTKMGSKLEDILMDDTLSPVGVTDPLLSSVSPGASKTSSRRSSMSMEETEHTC

[13] = molecular target: T3, Short transient receptor potential channel 4 (Mus musculus, UniProt Q9QUQ5); test: mouse TRPC4 channel activators, dose response, cell-based, HEK293 TRPC4/mu-opioid, Fluo-4 calcium (AID 434937); type: functional
T3 sequence (Q9QUQ5 whole entry): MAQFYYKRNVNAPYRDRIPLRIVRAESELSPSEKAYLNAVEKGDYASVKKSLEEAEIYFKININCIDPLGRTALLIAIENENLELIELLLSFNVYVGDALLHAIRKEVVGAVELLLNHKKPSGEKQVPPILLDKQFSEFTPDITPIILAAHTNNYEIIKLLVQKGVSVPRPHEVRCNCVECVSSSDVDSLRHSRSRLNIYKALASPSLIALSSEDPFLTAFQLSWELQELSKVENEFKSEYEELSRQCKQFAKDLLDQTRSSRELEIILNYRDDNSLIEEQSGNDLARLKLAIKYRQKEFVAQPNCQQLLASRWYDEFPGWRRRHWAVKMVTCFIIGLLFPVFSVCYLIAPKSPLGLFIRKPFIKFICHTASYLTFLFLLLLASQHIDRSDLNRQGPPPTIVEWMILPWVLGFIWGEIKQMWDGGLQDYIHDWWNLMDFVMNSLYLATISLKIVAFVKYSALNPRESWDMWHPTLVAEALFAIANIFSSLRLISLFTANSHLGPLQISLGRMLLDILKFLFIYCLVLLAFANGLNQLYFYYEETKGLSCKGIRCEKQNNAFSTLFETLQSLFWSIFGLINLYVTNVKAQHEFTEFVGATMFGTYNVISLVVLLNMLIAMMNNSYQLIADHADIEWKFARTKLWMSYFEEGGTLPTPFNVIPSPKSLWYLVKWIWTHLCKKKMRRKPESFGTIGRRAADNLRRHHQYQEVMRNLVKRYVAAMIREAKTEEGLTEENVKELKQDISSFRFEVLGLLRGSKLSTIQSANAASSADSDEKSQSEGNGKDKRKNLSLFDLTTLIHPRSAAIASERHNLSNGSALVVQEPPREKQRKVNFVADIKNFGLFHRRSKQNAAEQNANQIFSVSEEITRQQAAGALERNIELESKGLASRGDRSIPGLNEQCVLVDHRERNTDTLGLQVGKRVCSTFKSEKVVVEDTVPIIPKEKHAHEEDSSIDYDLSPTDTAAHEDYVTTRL

[14] = molecular target: T3, Short transient receptor potential channel 4; test: mouse TRPC4 channel inhibitors, dose response, cell-based, HEK293 TRPC4/mu-opioid, Fluo-4 calcium (AID 434942); type: functional;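 also: potency of inhibitors blocking the TRPC4 calcium response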
[15] = molecular target: T4, Serine/threonine-protein phosphatase (Candida dubliniensis (strain CD36 / CBS 7987 / NCPF 3949 / NRRLY-17841) (Yeast), UniProt B9W6M3); test: calcineurin pathway inhibitors in yeast reporter, dose response, S. cerevisiae, CDRE-lacZ, luminescence, secondary (AID 2388); type: functional, cell-based;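 also: yeast reporter cells carrying a calcineurin-responsive lacZ construct stimulated with calcium chloride; luminescent beta-galactosidase reporter signal in whole cells rather than isolated phosphatase activity; potency for inhibition where a drop in reporter signal means calcineurin blockade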
T4 sequence (B9W6M3 whole entry): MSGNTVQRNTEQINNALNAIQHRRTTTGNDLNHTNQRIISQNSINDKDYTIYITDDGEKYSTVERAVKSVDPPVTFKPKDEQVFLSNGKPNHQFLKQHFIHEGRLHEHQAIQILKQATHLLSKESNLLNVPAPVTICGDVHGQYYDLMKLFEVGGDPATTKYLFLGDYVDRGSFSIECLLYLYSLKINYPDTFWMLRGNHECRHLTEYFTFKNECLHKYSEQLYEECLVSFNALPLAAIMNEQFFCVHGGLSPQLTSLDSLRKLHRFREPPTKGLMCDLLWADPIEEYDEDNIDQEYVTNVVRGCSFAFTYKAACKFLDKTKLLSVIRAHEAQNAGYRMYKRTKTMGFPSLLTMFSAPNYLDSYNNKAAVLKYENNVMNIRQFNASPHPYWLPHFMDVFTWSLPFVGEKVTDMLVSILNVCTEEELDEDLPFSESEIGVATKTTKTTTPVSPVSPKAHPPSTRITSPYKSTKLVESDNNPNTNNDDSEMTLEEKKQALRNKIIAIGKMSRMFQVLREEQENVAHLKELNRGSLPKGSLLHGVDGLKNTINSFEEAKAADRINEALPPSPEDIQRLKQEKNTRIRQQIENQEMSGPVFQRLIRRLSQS

[16] = NIH-3T3 fibroblast cytotoxicity, dose response, cytotoxicity control, cell-based, fluorescence, Alamar Blue, secondary assay (AID 2327); type: functional;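 also: NIH-3T3 mouse fibroblasts cultured with fluconazole at 8 µg/mL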
[17] = C. albicans growth with fluconazole, confirmation, fluorescence, retest (AID 2467); type: functional, cell-based
[18] = molecular target: ATP-dependent molecular chaperone HSP82 (Candida albicans (strain WO-1) (Yeast), UniProt C4YTQ8); test: loss of DOC-induced GRE-beta-galactosidase reporter signal, dose response, Hsp90 inhibitor project, S. cerevisiae, luminescence (AID 2400); type: functional, cell-based;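 also: beta-galactosidase luminescence from glucocorticoid response element reporter as proxy for Hsp90 function; inhibitor potency where signal loss means Hsp90 inhibition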
Sequence of ATP-dependent molecular chaperone HSP82 (C4YTQ8 whole entry): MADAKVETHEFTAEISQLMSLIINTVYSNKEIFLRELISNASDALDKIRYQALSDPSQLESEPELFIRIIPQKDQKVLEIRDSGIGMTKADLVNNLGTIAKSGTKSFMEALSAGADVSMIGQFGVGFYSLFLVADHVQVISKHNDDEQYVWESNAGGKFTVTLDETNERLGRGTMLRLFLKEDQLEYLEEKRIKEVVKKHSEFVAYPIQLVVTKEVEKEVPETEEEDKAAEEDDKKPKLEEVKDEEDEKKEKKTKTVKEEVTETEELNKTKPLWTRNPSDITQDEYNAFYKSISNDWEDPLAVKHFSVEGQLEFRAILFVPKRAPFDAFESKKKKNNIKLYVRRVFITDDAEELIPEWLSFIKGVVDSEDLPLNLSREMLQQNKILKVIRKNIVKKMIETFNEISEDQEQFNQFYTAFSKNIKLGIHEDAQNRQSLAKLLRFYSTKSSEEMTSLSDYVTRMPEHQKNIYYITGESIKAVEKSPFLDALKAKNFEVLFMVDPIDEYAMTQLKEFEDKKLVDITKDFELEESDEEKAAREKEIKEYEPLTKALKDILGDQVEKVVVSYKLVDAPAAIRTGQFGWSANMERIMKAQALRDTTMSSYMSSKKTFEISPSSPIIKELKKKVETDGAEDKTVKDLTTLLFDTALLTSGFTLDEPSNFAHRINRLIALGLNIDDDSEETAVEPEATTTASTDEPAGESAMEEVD

## Cc1ccc(-c2cc(C(=O)N3N=C(C(F)F)CC3(O)C(F)F)c3ccccc3n2)cc1C (stereo not given)
[1]
  EC50: 39.4 µM (active)
[2]
  EC50: 188 µM (active)
[3]
  EC50: 38.6 µM (active)
[4]
  AC50: 4.73 µM (active)
[5]
  AC50: 6.22 µM (active)
[6]
  EC50: > 30 µM (not active)
[7]
  EC50: 2.45 µM (active)

## CC(C(=O)N(C)C1CCS(=O)(=O)C1)N1C(=O)/C(=C/c2ccco2)SC1=S (stereo not given)
[8]
  CC50: 35.4 µM (active)

## Cc1cc(C(C)(C)C)cc(C)c1C[n+]1ccc2ccccc2c1
[9]
  AC50: 1.45 µM (active)
[10]
  IC50: > 80 µM (inactive)

## CCOC(=O)CC1=NN(c2ccccc2)C(=O)/C1=C\c1ccc(N(C)C)cc1
[11]
  IC50: 15.7 µM (active)

## COc1ccc(SN=C2C(C)=CC(=O)C=C2C)cc1
[5]
  AC50: 6.51 µM (active)

## Cc1cccc(Nc2nc(N)c([N+](=O)[O-])c(N3CCCC(C)C3)n2)c1 (stereo not given)
[5]
  AC50: 4.6 µM (active)

## O=C(Nc1ccc(OC(F)(F)F)cc1)c1n[nH]cc1[N+](=O)[O-]
[12]
  AC50: 0.601 µM (active)

## O=C(Nc1ccccc1N1CCOCC1)c1ccc([N+](=O)[O-])s1
[12]
  AC50: 12.3 µM (active)
[5]
  AC50: 7.97 µM (active)

## C[C@@]12C(=O)Nc3ccc(F)cc3C(=O)N1[C@H]1c3ccccc3OC[C@@H]1[C@@H]2c1ccccc1
[5]
  AC50: 5.82 µM (active)

## COc1ccc2c(c1)[C@H]1[C@H](CO2)[C@H](c2ccccc2)[C@]2(C)C(=O)Nc3ccc(Cl)cc3C(=O)N12
[5]
  AC50: 3.14 µM (active)

## S=c1sscc1-c1ccccc1
[11]
  IC50: 32.7 µM (active)

## O=c1c2c(-c3ccccc3)csc2ncn1/N=C/c1cccc([N+](=O)[O-])c1O
[13]
  EC50: 9.44 µM (active)
[14]
  EC50: 10.6 µM (active)

## C[C@@H]1CC[C@@]2(NC1)O[C@H]1C[C@H]3[C@@H]4CC=C5C[C@@H](O)CC[C@]5(C)[C@H]4CC[C@]3(C)[C@H]1[C@@H]2C
[15]
  EC50: > 180 µM (inactive)
[16]
  EC50: > 160 µM (inconclusive)
[17]
  EC50: 0.272 µM (active)
[18]
  EC50: > 160 µM (inactive)
